Test results as given in ChEMBL document CHEMBL1159303, “Isolation and structure determination of obyanamide, a novel cytotoxic cyclic depsipeptide from the marine cyanobacterium Lyngbya confervoides” (J Nat Prod, 2002).
≈ marks a conversion by molar mass, not a printed value.

Key:
[1] = test system: KB; assay: Cytotoxicity against human KB cells; assay type: functional, cell-based
[2] = test system: LoVo; assay: Cytotoxicity against human LoVo cells; assay type: functional, cell-based

CC[C@H]1CC(=O)O[C@@H](C)C(=O)N(C)[C@@H](C(C)C)C(=O)N(C)[C@@H](Cc2ccccc2)C(=O)N[C@@H](C)c2nc(cs2)C(=O)N1 [OBYANAMIDE]
IC50 [1]: 0.58 µg/mL (≈ 0.967 µM)
IC50 [2]: 3.14 µg/mL (≈ 5.24 µM)
